What was measured:
ID8-Defb29/Vegf-α cells = experiment: Cell line proliferation by MTS assay; format: cell-based, mouse; settings: ID8-Defb29/Vegf-α cells in vitro, increasing doses, steroid-free media; MCF-7 as positive control (FIG. 1D)
From the text: (§1) ID8 cells were retrovirally transduced to express Defb29 and Vegf-α (Conejo-Garcia, et al. “Tumor-infiltrating dendritic cell precursors recruited by a beta-defensin contribute to vaculogenesis under the influence of Vegf-A.” Nat. Med. (2004) 10:950-8). MCF-7, MDA-MB-231, and LLC1 cells were obtained from American Type Culture Collection. Peritoneal tumors were initiated in mice by injecting 3X106 ID8-Defb29/Vegf-α cells intraperitoneal (i.p.). Intraperitoneal cells were harvested from tumorbearing mice by flushing the peritoneal cavity with PBS. Cells were maintained in vitro at 37° C., 5% CO2 by culturing in RPMI+10% FBS or steroid free media (SFR10), which was comprised of phenol red-free RPMI+10% charcoal-stripped FBS. Cells were treated in vitro with vehicle (0.1% DMSO) or varying concentrations of estradiol, fulvestrant, or Methylpiperidino pyrazole (MPP) purchased from Cayman Chemical. Cell line proliferation was determined by MTS assay (Promega), and increased/decreased proliferation relative to vehicle was calculated.

[1] = system: ID8-Defb29/Vegf-α peritoneal tumors; experiment: Intraperitoneal ID8-Defb29/Vegf-α ovarian tumor model (survival, flow cytometry, ELISpot); format: in vivo, mouse
Method: (§2) Female 5-8 week old wild-type (WT) C57BL/6 and congenic Ly5.1 mice were purchased from the Charles River Frederick facility. Esr1 knockout (ERα KO) were purchased from The Jackson Laboratory. Ovariectomies were performed by Charles River staff at 5 weeks of age. Mice were treated with vehicle (0.1% ethanol) or 10 μM estradiol (USP grade, Sigma) drinking water refreshed every 3-4 days. All mice were maintained in pathogen-free barrier facilities. All experiments were conducted according to the approval of the Wistar Institute Institutional Animal Care and Use Committee.
as §1
For generating mixed BM chimeras, mononuclear BM cells were collected from adult agematched CD45.1 (congenic) WT or CD45.2 Esr1^−/− donor mice, and 1-2×10^6 cells were mixed in a 1:1 ratio and retro-orbitally injected into lethally irradiated (˜950 rad) adult recipients. Mixed chimeras were analyzed after 7-8 weeks as indicated.
(§3) Flow cytometry was performed by staining cells with Zombie Yellow viability dye, blocking with anti-CD16/32 (2.4G2), and staining for 30 min at 4° C. with the following anti-mouse antibodies: CD45 (30-F11), CD45.1 (A20), CD45.2 (104), CD11c (N418), I-A/I-E (M5/114.15.2), CD3 (145-2C11), Ly6G (1A8), Ly6C (HK1.4), gp130 (4H1B35), IL6R (D7715A7), Gr1 (RB6-4C5), CD4 (RM4-5), CD8b (YTS156.7.7), CD44 (IM7), CD69 (H1.2F3), CD11b (M1/70); or anti-human antibodies: CD45 (HI30), CD11c (Bul5), HLA-DR-APC/Cy7 (L243), CD15 (HI98), CD14 (HCD14), CD11b (ICRF44), CD33 (WM53), CD19 (HIB19). Samples were subsequently run using an LSRII and analyzed using FlowJo.
Dendritic cells (BMDCs) were differentiated by culturing WT mouse bone marrow for 7 days with 20 ng/mL GM-CSF (Peprotech 315-03), refreshed every 3 days. BMDCs were subsequently primed with tumor antigen by pulsing for 24 hours with irradiated (100 Gy+30 minutes UV) ID8-Defb29/Vegf-α cells at a ratio of 10:1. ELISPOT assay was performed by stimulating 1X105 cells obtained from peritoneal wash with 1X104 antigen-primed BMDCs in a 96-well filter plate (Millipore MSIPS4510) coated with IFNγ capture antibody according to manufacturer's guidelines (eBioscience 88-3784-88). Following incubation at 37° C., 5% CO2 or 48 hours, positive spots were developed using Avidin-AP and BCIP-NBT substrate (R&D Systems SEL002).

IL6Rα chain, gp130 = experiment: Surface expression of IL6Rα and gp130 on BM-derived MDSCs (flow cytometry); format: cell-based, mouse
Method: as §3
Mouse MDSCs were expanded from mouse bone marrow harvested by flushing tibias and femurs with media. Following red blood cell lysis, 2.5×10^6 cells were cultured in 10 mL of RPMI+10% FBS augmented with recombinant mouse 40 ng/mL GM-CSF^+40 ng/mL IL6 (Peprotech) and incubated at 37° C., 5% CO2 3 or 6 days. Vehicle, estradiol, or MPP treatments were added as described above. For 6 day cultures, cytokines and estrogen treatments were refreshed on day 3. Following incubation, floating and adherent cells were collected, and MMDSCs and G-MDSCs were isolated via MDSC purification kit according to manufacturer's protocol for further analysis. […] Cells were subsequently harvested and analyzed by flow cytometry.

Jak2 = Jak2 RNA and protein expression in BM-derived MDSCs; format: cell-based, mouse
Method: (§4) Mouse MDSCs were expanded from mouse bone marrow harvested by flushing tibias and femurs with media. Following red blood cell lysis, 2.5×10^6 cells were cultured in 10 mL of RPMI+10% FBS augmented with recombinant mouse 40 ng/mL GM-CSF^+40 ng/mL IL6 (Peprotech) and incubated at 37° C., 5% CO2 3 or 6 days. Vehicle, estradiol, or MPP treatments were added as described above. For 6 day cultures, cytokines and estrogen treatments were refreshed on day 3. Following incubation, floating and adherent cells were collected, and MMDSCs and G-MDSCs were isolated via MDSC purification kit according to manufacturer's protocol for further analysis. Human MDSCs were expanded from human lung cancer patient bone marrow acquired as single cell suspensions (see above). Briefly, 2×10^6 cells were cultured in 3 mL of IMDM^+ 15% FBS supplemented with recombinant human 40 ng/mL GM-CSF^+ 40 ng/mL IL6 (Peprotech) and treated with Vehicle, 2 μM, or 10 μM MPP (see above) for 4 days. Cells were subsequently harvested and analyzed by flow cytometry.
(§5) Cells were lysed in RIPA buffer supplemented with protease inhibitors, phosphatase inhibitors, and Na3VO4 (Thermo) according to manufacturer protocol. Protein quantification was determined via BCA assay, and protein was run on TGX 4-15% gradient gels. Following transfer, PVDF membranes were blocked with 5% BSA in TBS+ 0.05% Tween-20. […]

STAT3 [2] = experiment: pSTAT3 and total STAT3 in in vitro BM-derived MDSC cultures (Western blot); format: cell-based, mouse; settings: 100 ng/mL E2 or 2 μM MPP (FIG. 6B)
Method: as §4, §5

[3] = system: G- or M-MDSCs isolated from 6-day bone marrow cultures; experiment: MDSC suppression assay (Cell Trace Violet dilution of T cells); format: cell-based, mouse; settings: 6-day BM cultures
Method: as §4
Naïve WT T cells were purified from spleens as described and labeled with the proliferation tracker Cell Trace Violet according to manufacturer protocol. T cell proliferation was stimulated by adding anti-CD3/CD28 mouse T-activator beads (Thermo) at a 1:1 T cell to bead ratio according to manufacturer protocol. […]

[4] = system: Lewis Lung Carcinomas (LLC); experiment: Lewis Lung Carcinoma (LLC) tumor progression in mice; format: in vivo, mouse; settings: estradiol supplementation, WT mice (FIG. 3A)
Method: as §2
ID8 cells were retrovirally transduced to express Defb29 and Vegf-α (Conejo-Garcia, et al. “Tumor-infiltrating dendritic cell precursors recruited by a beta-defensin contribute to vaculogenesis under the influence of Vegf-A.” Nat. Med. (2004) 10:950-8). MCF-7, MDA-MB-231, and LLC1 cells were obtained from American Type Culture Collection. Peritoneal tumors were initiated in mice by injecting 3X106 ID8-Defb29/Vegf-α cells intraperitoneal (i.p.). Intraperitoneal cells were harvested from tumorbearing mice by flushing the peritoneal cavity with PBS. […] Cell line proliferation was determined by MTS assay (Promega), and increased/decreased proliferation relative to vehicle was calculated.

STAT3 [5] = experiment: pSTAT3 in MDSCs from tumor-bearing mice (Western blot); format: in vivo, mouse; settings: spleens of advanced ovarian cancer-bearing mice treated with E2, compared to oophorectomized mice (FIG. 6A)
Method: as §2
Cells were lysed in RIPA buffer supplemented with protease inhibitors, phosphatase inhibitors, and Na3VO4 (Thermo) according to manufacturer protocol. Protein quantification was determined via BCA assay, and protein was run on TGX 4-15% gradient gels. Following transfer, PVDF membranes were blocked with 5% BSA in TBS+ 0.05% Tween-20. The following primary antibodies were added to membranes, as indicated, and incubated overnight: Jak2 (rabbit clone#D2E12), Stat3 (clone#124H6) and pStat3 (Tyr705)(rabbit clone#D3A7), from Cell Signaling; and ERα (Thermo, clone#TE111.5D11) and beta-actin (Sigma, clone#AC-15).
Following secondary staining with HRP-conjugated anti-mouse or rabbit IgG, membranes were developed using ECL prime (GE Healthcare).

metastatic solid tumors = settings: patients with metastatic solid tumors; Soliman, et al., Oncotarget 2014; cited from earlier work

Structure (SMILES): C[C@]12CC[C@@H]3c4ccc(O)cc4CC[C@H]3[C@@H]1CC[C@@H]2O [estradiol]
- Proliferation relative to vehicle (response to treatment) (ID8-Defb29/Vegf-α cells): fail to respond
- Tumor progression in irradiated mice reconstituted with wild-type bone marrow ([1]; E2 treatment, compared to mice reconstituted with ERα-deficient bone marrow (FIG. 4B)): tumors progress significantly faster
- IFN-γ ELISpot response of tumor-associated T cells to tumor antigens ([1]; T cells from E2-treated mice vs control and oophorectomized mice (FIG. 2C)): responded significantly worse than either group
- Inflammation at tumor (peritoneal) beds ([1]; ad libitum estradiol supplementation, tumor-bearing mice (FIG. 2A)): augmented inflammation
- Tumor progression in ERα KO hosts ([1]; estradiol supplementation, ERα KO mice (FIG. 4A)): failed to accelerate tumor progression
- Tumor progression in wild-type controls ([1]; estradiol supplementation, wild-type mice (FIG. 4A)): significant effects
- Proportions of CD44+ CD69+ tumor-associated CD4 and CD8 T-cells ([1]; estradiol-supplemented tumor-bearing mice (FIG. 2B)): decreases
- Percentage and total numbers of M-MDSC and G-MDSC ([1]; spleen and tumor beds of tumor-bearing mice (FIGS. 3B to 3E)): increased
- Surface expression of the IL6Rα chain (IL6Rα chain, gp130; BM-MDSCs (FIG. 6D, left)): did not elicit changes
- Surface expression of gp130 (IL6Rα chain, gp130; BM-MDSCs (FIG. 6D, right)): did not elicit changes
- Jak2 protein expression (Jak2; BM-derived MDSCs (FIG. 6E, right)): reproducible Jak2 up-regulation
- Jak2 RNA expression (Jak2; cytokine-induced bone marrow MDSCs of both lineages (FIG. 6E, left)): transcriptional up-regulation
- Phospho-STAT3 in M-MDSCs and G-MDSCs (STAT3 [2]): increased phospho-STAT3 levels
- Inhibitory activity of M-MDSCs ([3]; 100 ng/mL E2 (FIG. 5C, bottom)): did not affect
- Immunosuppressive activity of G-MDSCs ([3]; 100 ng/mL E2 or 2 μM MPP (FIG. 5C, top)): more potently immunosuppressive
- Malignant growth of LLC tumors [4]: accelerated malignant growth
- Survival of LLC tumor-bearing mice [4]: decreased survival
- Levels of pSTAT3Y705 in monocytic and granulocytic MDSCs (STAT3 [5]): significantly increased

Structure (SMILES): Cn1cc(C[C@@H](N)C(=O)O)c2ccccc21 [Indoximod, 1-methyl-D-tryptophan]
- Activity in human clinical trials (metastatic solid tumors): has shown activity
